Legend:
[1] = molecular target: T1, Serine/threonine-protein kinase 36 (Homo sapiens) (UniProt Q9NRP7); test: Inhibition of STK36 (unknown origin) assessed as residual activity at 1000 nM by KINOMEscan analysis relative to control
T1 sequence (whole entry): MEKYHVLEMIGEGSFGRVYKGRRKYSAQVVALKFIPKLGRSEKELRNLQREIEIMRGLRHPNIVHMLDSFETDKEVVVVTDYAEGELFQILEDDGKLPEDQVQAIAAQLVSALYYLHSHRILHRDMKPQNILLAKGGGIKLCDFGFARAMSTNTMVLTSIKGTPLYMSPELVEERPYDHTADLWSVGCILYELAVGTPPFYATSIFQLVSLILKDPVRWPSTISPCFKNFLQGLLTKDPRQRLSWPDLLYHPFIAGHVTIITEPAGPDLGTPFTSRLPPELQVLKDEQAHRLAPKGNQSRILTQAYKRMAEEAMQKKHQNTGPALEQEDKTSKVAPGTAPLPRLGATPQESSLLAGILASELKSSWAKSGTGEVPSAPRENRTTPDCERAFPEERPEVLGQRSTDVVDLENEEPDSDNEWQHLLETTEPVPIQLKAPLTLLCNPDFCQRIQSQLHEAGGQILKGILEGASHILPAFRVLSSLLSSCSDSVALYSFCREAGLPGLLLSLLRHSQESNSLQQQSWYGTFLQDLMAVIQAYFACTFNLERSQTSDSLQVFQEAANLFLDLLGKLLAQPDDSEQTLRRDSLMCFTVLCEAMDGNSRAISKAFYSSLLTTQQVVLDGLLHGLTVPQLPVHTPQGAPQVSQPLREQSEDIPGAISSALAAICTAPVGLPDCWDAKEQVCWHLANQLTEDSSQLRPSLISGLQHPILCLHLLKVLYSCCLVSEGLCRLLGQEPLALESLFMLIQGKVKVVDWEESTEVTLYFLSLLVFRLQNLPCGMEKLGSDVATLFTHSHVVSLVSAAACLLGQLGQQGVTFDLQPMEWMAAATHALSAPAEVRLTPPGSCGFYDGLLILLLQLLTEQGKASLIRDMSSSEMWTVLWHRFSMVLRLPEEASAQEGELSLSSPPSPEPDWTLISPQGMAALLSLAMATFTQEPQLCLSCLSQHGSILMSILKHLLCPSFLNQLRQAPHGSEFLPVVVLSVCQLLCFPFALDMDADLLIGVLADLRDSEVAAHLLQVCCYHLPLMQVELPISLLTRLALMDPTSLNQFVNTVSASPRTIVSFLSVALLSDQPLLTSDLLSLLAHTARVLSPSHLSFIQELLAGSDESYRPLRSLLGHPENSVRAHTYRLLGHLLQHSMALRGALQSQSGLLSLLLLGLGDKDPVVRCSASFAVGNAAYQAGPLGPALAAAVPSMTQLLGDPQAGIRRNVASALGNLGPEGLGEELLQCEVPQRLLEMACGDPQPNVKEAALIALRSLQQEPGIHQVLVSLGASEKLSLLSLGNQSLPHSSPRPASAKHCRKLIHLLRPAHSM

[2] = molecular target: Mitogen-activated protein kinase 6 (Homo sapiens) (UniProt Q16659); test: Inhibition of ERK3 (unknown origin) assessed as residual activity at 1000 nM by KINOMEscan analysis relative to control
[3] = molecular target: Calcium/calmodulin-dependent protein kinase kinase 2 (Homo sapiens) (UniProt Q96RR4); test: Inhibition of CAMKK2 (unknown origin) assessed as residual activity at 1000 nM by KINOMEscan analysis relative to control
[4] = tested on: Proto-oncogene tyrosine-protein kinase receptor Ret (Homo sapiens), P07949 [M918T]; test: Inhibition of RET M918T mutant (unknown origin) assessed as residual activity at 1000 nM by KINOMEscan analysis relative to control
[5] = molecular target: Serine/threonine-protein kinase pim-1 (Homo sapiens) (UniProt P11309); test: Inhibition of PIM1 (unknown origin) assessed as residual activity at 1000 nM by KINOMEscan analysis relative to control
[6] = tested on: Epidermal growth factor receptor (Homo sapiens), P00533 [UNDEFINED MUTATION]; test: Inhibition of EGFR L747-S752del/P753S mutant (unknown origin) assessed as residual activity at 1000 nM by KINOMEscan analysis relative to control
[7] = molecular target: Ribosomal protein S6 kinase alpha-6 (Homo sapiens) (UniProt Q9UK32); test: Inhibition of C-terminal RSK4 kinetic domain 2 (unknown origin) assessed as residual activity at 1000 nM by KINOMEscan analysis relative to control
[8] = tested on: Mast/stem cell growth factor receptor Kit (Homo sapiens), P10721 [A829P]; test: Inhibition of KIT A829P mutant (unknown origin) assessed as residual activity at 1000 nM by KINOMEscan analysis relative to control
[9] = molecular target: T2, Serine/threonine-protein kinase NLK (Homo sapiens) (UniProt Q9UBE8); test: Inhibition of NLK (unknown origin) assessed as residual activity at 1000 nM by KINOMEscan analysis relative to control
T2 sequence (whole entry): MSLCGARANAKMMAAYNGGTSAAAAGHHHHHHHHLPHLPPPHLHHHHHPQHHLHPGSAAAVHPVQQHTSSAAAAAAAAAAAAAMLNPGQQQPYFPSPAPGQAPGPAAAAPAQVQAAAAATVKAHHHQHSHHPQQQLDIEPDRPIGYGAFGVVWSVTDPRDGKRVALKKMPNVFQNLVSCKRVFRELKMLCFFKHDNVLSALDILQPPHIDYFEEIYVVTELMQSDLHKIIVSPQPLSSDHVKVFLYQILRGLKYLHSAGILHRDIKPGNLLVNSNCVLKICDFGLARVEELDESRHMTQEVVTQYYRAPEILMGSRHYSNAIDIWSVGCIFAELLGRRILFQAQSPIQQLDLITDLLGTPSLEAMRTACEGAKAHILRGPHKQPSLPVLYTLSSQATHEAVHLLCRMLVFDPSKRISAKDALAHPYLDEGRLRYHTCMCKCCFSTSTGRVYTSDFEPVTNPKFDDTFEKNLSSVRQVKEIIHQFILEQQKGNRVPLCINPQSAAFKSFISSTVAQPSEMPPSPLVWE

[10] = tested on: eIF-2-alpha kinase GCN2 (Homo sapiens), Q9P2K8 [S808G]; test: Inhibition of GCN2 S808G mutant […] domain (unknown origin) assessed as residual activity at 1000 nM by KINOMEscan analysis relative to control
Sequence of eIF-2-alpha kinase GCN2 (Homo sapiens), Q9P2K8 [S808G] (Q9P2K8 whole entry S808G): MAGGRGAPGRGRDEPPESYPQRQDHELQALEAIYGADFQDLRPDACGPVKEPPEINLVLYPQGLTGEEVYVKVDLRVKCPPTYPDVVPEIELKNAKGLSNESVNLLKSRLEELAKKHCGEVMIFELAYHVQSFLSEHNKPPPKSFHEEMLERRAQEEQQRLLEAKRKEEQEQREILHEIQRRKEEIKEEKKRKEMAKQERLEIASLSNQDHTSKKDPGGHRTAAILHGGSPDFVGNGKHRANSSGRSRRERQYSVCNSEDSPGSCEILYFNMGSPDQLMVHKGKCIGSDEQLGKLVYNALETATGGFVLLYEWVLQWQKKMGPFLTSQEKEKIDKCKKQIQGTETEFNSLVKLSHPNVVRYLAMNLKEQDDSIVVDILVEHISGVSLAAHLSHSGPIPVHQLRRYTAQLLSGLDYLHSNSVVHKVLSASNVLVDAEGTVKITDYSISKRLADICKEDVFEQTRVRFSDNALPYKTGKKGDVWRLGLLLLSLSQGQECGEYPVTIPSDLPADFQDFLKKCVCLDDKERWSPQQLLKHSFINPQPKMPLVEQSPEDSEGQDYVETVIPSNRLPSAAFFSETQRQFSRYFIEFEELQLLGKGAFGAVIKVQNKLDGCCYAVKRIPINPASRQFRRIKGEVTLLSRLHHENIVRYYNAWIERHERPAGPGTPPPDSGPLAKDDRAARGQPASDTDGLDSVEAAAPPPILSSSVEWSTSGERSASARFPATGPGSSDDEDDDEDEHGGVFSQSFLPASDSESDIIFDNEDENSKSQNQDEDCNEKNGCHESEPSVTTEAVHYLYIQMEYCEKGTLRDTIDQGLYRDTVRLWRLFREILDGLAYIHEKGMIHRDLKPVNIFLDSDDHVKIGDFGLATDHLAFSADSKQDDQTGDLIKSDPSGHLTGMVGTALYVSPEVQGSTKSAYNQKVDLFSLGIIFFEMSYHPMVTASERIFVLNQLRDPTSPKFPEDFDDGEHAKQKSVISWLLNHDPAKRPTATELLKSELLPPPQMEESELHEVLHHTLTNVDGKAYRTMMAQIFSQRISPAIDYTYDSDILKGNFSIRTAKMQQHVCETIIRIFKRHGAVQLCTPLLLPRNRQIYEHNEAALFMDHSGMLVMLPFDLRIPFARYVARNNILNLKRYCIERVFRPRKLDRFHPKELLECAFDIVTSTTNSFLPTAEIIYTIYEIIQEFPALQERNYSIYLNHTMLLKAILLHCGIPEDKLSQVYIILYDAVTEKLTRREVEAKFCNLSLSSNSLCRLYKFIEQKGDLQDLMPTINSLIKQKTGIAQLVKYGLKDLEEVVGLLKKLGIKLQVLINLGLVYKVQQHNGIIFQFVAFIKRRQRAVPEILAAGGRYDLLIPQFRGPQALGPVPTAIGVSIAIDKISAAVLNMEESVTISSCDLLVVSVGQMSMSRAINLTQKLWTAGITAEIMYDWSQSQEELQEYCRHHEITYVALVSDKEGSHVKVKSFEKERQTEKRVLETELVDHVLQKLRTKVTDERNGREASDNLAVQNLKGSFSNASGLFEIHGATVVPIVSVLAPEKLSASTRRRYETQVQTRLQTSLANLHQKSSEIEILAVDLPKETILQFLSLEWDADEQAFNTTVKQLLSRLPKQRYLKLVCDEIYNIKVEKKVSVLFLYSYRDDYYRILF

Sequence of Ribosomal protein S6 kinase alpha-6 (Homo sapiens) (Q9UK32 whole entry, the tested form may be a part): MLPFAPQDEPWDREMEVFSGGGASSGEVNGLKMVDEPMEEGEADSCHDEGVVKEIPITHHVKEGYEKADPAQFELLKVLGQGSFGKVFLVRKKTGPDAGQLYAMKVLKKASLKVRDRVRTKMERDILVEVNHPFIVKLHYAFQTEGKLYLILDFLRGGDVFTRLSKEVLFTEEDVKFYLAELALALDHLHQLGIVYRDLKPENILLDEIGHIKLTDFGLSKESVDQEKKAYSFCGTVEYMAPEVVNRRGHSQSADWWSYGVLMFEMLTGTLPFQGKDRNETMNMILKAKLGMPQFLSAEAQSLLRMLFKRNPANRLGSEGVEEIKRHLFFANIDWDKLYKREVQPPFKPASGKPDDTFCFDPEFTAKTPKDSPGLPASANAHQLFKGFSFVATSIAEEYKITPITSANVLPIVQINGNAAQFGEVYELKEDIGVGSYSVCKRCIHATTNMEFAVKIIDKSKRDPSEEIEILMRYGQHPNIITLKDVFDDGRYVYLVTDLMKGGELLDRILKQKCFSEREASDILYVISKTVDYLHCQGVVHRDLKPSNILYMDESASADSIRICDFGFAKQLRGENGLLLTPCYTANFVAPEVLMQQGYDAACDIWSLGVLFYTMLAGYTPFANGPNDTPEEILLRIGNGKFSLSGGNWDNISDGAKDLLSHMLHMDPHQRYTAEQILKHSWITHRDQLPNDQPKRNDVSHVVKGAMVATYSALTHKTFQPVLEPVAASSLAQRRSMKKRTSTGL
Sequence of Mitogen-activated protein kinase 6 (Homo sapiens) (Q16659 whole entry): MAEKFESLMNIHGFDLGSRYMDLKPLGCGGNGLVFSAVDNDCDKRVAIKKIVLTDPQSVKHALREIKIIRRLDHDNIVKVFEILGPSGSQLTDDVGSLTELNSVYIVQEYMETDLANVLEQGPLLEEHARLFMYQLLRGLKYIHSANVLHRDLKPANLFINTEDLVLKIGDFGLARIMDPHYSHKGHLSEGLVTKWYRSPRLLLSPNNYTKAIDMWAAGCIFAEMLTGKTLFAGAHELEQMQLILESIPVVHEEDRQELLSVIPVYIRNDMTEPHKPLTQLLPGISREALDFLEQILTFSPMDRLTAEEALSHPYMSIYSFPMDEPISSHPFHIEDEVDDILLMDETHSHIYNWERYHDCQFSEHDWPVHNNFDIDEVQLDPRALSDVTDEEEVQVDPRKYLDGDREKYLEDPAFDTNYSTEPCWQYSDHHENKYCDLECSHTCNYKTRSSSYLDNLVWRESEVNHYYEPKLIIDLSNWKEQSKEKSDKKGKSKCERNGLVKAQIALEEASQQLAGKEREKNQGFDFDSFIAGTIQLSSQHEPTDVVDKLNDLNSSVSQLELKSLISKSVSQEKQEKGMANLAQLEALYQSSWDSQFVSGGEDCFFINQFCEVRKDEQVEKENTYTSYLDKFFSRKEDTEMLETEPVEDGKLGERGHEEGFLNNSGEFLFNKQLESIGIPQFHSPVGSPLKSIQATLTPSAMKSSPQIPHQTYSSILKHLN
Sequence of Mast/stem cell growth factor receptor Kit (Homo sapiens), P10721 [A829P] (P10721 whole entry A829P): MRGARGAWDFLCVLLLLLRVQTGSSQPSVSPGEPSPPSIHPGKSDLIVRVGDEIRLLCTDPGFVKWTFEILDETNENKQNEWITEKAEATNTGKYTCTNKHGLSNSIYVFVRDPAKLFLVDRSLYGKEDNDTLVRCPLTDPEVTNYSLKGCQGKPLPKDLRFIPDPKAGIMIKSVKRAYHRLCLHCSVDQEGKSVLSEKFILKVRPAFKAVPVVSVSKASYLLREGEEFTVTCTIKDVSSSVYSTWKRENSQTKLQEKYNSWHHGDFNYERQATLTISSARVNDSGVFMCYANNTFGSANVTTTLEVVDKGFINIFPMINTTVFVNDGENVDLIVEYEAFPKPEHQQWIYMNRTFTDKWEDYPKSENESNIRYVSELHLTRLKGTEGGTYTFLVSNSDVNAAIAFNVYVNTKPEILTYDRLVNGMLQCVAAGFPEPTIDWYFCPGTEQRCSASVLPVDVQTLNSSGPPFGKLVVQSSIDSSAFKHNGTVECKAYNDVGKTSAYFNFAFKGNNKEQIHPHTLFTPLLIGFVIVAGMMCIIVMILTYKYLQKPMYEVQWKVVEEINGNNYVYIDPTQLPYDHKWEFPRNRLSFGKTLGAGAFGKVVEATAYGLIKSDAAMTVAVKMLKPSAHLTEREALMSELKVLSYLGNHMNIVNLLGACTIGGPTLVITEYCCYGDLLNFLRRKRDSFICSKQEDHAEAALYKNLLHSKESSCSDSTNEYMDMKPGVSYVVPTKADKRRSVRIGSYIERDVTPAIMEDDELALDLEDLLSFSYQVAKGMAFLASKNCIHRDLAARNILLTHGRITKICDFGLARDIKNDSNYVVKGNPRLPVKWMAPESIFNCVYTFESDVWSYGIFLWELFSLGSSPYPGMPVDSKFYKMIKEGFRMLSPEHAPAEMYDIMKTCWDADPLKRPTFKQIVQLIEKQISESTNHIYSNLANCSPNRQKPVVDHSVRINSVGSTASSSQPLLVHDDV
Sequence of Calcium/calmodulin-dependent protein kinase kinase 2 (Homo sapiens) (Q96RR4 2-588 limits assumed): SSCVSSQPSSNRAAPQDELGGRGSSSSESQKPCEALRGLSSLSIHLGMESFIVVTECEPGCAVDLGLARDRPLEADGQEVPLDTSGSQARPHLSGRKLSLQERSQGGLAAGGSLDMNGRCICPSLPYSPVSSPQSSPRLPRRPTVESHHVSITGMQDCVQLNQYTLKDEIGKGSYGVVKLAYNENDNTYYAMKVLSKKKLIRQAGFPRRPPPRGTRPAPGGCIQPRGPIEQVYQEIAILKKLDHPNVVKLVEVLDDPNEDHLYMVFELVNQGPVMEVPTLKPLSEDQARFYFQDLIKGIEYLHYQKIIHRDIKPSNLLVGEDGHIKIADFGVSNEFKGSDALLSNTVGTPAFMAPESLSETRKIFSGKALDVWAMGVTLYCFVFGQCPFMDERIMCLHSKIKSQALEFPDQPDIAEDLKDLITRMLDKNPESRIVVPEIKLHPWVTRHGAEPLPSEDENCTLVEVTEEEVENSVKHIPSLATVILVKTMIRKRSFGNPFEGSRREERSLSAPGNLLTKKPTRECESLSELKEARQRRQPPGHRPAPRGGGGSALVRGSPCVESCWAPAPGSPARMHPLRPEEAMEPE
Sequence of Serine/threonine-protein kinase pim-1 (Homo sapiens) (P11309 whole entry, looked up): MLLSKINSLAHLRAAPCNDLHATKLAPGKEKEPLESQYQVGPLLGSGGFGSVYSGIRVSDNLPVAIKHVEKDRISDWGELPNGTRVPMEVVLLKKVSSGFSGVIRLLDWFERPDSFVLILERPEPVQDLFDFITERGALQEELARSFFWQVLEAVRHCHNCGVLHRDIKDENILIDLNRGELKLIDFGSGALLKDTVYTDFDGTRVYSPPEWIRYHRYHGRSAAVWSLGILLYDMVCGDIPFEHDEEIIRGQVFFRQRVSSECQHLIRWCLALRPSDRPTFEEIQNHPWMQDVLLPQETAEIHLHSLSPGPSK

COc1cc2nc(C)nc(N[C@H](C)c3cccc(-c4cn[nH]c4)c3)c2cc1OC
Activity [1]: 100% | Activity [2]: 100% | Activity [3]: 65% | Activity [4]: 60% | Activity [5]: 79% | Activity [6]: 93% | Activity [7]: 53% | Activity [8]: 93% | Activity [9]: 54% | Activity [10]: 100%

COc1cc2ncnc(N[C@H](C)c3cccc4ccccc34)c2cc1OC
Activity [1]: 100% | Activity [2]: 94% | Activity [3]: 92% | Activity [4]: 100% | Activity [5]: 98% | Activity [6]: 9.3% | Activity [7]: 95% | Activity [8]: 94% | Activity [9]: 86% | Activity [10]: 100%

Reference: ChEMBL document CHEMBL5678818, “Discovery of potent SOS1 inhibitors that block RAS activation via disruption of the RAS-SOS1 interaction” (Proc Natl Acad Sci U S A, 2019)
